Measured values: publication PMC9579733 (Journal of Orthopaedic Translation, 2022)

Key:
[1] = system: farnesoid X receptor (FXR); conditions: ref [11],[12]; cited from earlier work
FXR-RUNX2 signalling = FXR-RUNX2 signalling in femur of OVX mice; assay type: in vivo, C57BL/6J mice; conditions: 20 mg/kg intravenously daily for 4 weeks, qRT-PCR, n = 6
MC3T3-E1 cells = experiment: ALP activity analysis of MC3T3-E1 cells; assay type: cell-based, mouse; conditions: osteogenic differentiation medium, GPA 50 μM or SGPA 2.5-10 μM; 14 days (method) / 7 days (Fig. 3 legend)
[2] = ref [9],[10]; cited from earlier work
human and mouse OBs = conditions: peptide screened by phage technology; ref [21]; cited from earlier work
[3] = system: osteoblast-specific factor 2 (OSF-2); conditions: ref [21]; cited from earlier work

| Compound | activation of farnesoid X receptor (FXR) [1] | mRNA expression of Bsep (a target gene for FXR) in femur (FXR-RUNX2 signalling) | mRNA expression of Runx2 in femur (FXR-RUNX2 signalling) | ALP activity (MC3T3-E1 cells) | tissue enrichment of GPA [2] | targeting of OBs (human and mouse OBs) | affinity with osteoblast-specific factor 2 (OSF-2) [3] |
| --- | --- | --- | --- | --- | --- | --- | --- |
| O=C(O)C1=CO[C@@H](O[C@@H]2O[C@H](CO)[C@@H](O)[C@H](O)[C@H]2O)[C@@H]2C(CO)=CC[C@H]12 [GPA, Geniposidic acid] | activated | significantly increased | significantly increased | increased | enriched in liver and kidney |  |  |
| Ser-Asp-Ser-Ser-Asp [SDSSD] |  |  |  |  |  | can specifically target both human and mouse OBs | high affinity |
